In ChEMBL document CHEMBL3991601, “The target landscape of clinical kinase drugs” (Science, 2017):
pKd: −log10 of the molar value. Where a name gives a salt, the structure may show the parent alone. Active and inactive are the calls of the source. For most assays here, no stated cut-off is given here; in the data, actives have a measured Kd and inactives only a lower limit.

Assays:
[1] = biological target: T1, DNA replication licensing factor MCM4 (Homo sapiens, UniProt P33991)
T1 sequence (P33991 whole entry): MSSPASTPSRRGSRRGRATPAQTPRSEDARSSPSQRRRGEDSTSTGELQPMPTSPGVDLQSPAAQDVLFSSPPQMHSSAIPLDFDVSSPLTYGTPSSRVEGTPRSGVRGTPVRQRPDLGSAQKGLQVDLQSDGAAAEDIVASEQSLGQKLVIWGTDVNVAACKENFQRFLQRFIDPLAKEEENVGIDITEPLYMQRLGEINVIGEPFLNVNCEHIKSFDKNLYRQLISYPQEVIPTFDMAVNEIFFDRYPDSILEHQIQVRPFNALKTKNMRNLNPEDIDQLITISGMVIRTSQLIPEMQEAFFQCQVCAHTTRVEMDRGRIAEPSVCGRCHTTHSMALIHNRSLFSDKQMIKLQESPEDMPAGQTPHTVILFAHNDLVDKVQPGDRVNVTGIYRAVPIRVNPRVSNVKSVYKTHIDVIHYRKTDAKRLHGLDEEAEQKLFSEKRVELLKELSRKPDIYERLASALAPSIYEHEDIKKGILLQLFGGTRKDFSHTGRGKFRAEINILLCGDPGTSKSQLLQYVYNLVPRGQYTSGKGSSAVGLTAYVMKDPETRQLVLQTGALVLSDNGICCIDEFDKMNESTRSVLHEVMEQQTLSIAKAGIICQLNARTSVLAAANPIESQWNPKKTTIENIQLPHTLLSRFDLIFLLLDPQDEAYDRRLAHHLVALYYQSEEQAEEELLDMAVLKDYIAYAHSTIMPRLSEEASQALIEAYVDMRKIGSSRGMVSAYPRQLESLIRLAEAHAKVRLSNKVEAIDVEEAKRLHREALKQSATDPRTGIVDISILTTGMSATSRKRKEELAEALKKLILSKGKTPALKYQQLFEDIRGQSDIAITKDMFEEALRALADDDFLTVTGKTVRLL

[2] = biological target: T2, Cyclin-G-associated kinase (Homo sapiens, UniProt O14976)
T2 sequence (O14976 whole entry): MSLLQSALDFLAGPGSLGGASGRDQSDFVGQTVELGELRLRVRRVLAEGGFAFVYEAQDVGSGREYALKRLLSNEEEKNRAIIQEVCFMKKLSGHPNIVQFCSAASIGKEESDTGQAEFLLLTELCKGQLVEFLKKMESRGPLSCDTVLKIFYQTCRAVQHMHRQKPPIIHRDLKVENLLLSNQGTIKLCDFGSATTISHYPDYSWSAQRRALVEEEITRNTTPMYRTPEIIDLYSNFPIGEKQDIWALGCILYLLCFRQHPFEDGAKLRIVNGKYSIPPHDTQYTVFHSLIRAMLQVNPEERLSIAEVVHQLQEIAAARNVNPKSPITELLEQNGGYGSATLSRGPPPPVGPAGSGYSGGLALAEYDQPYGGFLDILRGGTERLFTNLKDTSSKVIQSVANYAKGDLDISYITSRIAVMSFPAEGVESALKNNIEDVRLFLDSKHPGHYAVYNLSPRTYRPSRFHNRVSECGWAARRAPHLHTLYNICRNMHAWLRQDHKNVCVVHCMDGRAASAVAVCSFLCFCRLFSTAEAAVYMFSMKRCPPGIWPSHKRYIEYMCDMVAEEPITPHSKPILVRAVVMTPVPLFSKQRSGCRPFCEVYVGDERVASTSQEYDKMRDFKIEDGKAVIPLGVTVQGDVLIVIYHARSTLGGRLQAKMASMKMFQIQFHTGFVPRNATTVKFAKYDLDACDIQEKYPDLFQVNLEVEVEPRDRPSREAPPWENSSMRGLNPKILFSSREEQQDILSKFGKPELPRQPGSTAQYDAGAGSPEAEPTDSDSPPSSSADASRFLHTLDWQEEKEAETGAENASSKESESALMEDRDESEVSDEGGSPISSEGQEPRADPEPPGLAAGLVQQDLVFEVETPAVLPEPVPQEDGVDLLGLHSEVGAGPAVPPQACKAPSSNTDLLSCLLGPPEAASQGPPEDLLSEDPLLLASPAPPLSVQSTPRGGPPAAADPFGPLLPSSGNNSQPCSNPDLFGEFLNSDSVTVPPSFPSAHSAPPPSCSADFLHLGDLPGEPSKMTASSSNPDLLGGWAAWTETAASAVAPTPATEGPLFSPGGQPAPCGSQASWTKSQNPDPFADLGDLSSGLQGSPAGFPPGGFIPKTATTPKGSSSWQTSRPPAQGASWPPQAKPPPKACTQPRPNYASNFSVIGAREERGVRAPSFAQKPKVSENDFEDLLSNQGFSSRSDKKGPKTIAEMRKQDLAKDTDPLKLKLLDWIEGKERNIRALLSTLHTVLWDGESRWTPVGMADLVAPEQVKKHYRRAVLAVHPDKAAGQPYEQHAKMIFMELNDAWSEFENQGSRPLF

[3] = biological target: Protein-tyrosine kinase 6 (Homo sapiens, UniProt Q13882)
Chain of Protein-tyrosine kinase 6 (Q13882 whole entry): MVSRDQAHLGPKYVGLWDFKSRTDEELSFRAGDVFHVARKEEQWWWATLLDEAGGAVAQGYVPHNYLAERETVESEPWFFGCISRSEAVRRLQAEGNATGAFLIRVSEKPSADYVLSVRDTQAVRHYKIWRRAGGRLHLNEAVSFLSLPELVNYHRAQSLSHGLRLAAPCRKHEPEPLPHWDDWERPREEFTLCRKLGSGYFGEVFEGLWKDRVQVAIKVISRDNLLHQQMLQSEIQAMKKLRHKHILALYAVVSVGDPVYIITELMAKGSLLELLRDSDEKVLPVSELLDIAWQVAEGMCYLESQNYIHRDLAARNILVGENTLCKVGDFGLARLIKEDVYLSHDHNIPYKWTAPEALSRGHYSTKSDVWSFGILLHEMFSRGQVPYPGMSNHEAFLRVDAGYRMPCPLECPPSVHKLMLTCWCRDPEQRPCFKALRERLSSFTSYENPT

[4] = biological target: Tyrosine-protein kinase Lck (Homo sapiens, UniProt P06239)
Chain of Tyrosine-protein kinase Lck (P06239 whole entry): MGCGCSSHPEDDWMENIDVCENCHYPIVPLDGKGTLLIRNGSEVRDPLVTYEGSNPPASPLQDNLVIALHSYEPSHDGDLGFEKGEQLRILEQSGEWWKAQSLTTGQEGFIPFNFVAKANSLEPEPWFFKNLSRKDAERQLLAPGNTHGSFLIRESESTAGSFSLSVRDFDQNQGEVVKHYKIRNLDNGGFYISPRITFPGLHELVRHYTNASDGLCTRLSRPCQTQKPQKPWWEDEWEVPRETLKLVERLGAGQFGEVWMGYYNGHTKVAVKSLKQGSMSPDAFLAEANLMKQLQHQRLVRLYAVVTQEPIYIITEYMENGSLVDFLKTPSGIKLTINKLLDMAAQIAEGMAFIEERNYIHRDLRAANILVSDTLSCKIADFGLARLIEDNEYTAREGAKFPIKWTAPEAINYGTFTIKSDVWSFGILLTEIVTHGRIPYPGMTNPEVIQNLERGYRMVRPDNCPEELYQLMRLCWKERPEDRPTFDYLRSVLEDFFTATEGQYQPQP

[5] = biological target: Mitogen-activated protein kinase kinase kinase 1 (Homo sapiens, UniProt Q13233)
Chain of Mitogen-activated protein kinase kinase kinase 1 (Q13233 whole entry): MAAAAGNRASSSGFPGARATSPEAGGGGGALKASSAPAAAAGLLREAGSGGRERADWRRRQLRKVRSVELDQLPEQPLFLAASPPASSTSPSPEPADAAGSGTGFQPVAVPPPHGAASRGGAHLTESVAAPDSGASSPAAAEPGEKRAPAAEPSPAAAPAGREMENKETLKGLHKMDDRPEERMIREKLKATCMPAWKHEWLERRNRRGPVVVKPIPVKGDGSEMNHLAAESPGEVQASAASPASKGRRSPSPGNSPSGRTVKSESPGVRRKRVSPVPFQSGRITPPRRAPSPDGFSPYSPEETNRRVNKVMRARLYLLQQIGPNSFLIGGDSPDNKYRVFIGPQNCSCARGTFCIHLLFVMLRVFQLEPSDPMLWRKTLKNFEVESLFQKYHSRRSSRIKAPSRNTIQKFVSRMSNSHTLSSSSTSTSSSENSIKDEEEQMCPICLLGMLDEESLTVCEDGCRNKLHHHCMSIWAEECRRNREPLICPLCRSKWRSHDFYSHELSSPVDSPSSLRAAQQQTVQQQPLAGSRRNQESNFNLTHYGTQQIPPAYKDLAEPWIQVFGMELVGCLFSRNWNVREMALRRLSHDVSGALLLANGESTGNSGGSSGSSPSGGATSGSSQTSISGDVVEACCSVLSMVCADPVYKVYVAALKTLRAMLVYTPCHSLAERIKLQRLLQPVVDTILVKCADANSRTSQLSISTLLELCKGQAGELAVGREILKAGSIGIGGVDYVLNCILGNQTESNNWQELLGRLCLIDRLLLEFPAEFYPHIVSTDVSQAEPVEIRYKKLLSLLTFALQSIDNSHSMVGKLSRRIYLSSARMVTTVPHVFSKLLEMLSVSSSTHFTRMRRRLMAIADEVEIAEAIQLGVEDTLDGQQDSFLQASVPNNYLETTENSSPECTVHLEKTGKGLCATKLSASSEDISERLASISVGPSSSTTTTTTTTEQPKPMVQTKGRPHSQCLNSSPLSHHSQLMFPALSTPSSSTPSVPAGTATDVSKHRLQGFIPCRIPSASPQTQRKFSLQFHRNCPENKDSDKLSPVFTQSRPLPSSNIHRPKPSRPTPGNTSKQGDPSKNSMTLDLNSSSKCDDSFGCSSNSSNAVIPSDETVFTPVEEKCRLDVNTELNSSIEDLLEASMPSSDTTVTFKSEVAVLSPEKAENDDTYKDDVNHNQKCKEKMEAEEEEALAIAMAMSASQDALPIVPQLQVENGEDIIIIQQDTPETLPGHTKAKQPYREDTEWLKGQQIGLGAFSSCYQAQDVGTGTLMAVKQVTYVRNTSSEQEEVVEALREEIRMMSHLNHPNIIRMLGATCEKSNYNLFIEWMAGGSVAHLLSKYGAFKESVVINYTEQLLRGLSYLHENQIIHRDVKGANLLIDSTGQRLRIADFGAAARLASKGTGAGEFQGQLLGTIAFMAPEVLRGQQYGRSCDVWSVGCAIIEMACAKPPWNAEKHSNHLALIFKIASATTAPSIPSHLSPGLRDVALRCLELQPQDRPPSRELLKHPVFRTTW

[6] = biological target: T3, Ferrochelatase, mitochondrial (Homo sapiens, UniProt P22830)
T3 sequence (P22830 whole entry): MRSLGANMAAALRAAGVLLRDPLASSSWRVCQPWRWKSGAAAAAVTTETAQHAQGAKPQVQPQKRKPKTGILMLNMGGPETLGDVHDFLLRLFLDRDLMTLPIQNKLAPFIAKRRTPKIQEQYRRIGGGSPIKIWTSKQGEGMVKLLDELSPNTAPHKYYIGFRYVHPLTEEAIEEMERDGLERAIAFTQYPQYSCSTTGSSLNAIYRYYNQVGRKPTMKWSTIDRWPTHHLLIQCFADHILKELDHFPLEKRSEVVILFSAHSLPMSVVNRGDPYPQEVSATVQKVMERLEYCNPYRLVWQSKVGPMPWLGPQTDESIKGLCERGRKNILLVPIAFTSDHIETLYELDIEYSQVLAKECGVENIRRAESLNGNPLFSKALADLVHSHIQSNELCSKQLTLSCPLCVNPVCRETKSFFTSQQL

[7] = biological target: Hepatocyte growth factor receptor (Homo sapiens, UniProt P08581)
Chain of Hepatocyte growth factor receptor (P08581 whole entry): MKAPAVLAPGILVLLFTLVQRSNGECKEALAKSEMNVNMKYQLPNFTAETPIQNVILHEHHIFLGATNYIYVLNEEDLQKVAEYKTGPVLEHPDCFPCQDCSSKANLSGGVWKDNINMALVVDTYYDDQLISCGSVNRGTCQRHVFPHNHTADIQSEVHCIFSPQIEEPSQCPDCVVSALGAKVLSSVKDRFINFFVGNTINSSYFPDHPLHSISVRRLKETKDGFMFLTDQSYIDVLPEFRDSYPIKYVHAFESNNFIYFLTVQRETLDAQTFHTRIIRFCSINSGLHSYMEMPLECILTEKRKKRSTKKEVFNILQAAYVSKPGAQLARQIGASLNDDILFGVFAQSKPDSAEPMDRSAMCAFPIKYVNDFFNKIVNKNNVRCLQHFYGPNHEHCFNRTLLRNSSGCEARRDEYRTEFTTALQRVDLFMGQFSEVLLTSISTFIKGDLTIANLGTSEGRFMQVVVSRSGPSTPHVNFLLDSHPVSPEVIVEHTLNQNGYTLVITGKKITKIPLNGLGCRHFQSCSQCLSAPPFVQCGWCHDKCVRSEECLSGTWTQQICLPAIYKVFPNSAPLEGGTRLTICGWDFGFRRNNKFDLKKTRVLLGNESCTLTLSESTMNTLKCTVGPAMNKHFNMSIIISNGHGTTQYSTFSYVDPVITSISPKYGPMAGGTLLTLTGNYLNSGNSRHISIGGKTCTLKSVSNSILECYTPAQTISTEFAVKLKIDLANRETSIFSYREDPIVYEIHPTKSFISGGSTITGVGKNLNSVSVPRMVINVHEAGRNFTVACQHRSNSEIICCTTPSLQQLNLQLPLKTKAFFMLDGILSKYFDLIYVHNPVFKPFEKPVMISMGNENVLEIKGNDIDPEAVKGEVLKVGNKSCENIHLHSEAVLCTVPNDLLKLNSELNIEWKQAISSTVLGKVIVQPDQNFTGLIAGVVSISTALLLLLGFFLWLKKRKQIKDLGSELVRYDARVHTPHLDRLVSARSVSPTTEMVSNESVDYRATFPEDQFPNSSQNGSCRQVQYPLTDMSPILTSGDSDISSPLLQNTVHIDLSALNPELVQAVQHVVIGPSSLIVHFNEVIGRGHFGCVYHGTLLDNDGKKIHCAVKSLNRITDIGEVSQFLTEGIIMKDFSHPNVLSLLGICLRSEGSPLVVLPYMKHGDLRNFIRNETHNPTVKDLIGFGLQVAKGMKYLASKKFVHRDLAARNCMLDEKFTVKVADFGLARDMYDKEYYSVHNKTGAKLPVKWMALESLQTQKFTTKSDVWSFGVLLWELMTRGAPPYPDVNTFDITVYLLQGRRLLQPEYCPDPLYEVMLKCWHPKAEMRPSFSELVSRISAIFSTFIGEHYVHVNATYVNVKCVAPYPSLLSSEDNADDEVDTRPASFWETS

Row | SMILES | Kd [1] | Kd [2] | Kd [3] | Kd [4] | Kd [5] | Kd [6] | pKd [7] | Kd [7] | pKd [3] | pKd [4]
1 | C[C@@H](Oc1cc(C(=O)Nc2ccc(C(=O)N3CCN(C)CC3)cc2)nnc1N)c1c(Cl)ccc(F)c1Cl | > 30 µM (inactive) | > 30 µM (inactive) | > 30 µM (inactive) | > 30 µM (inactive) | 2.19 µM (active) | > 30 µM (inactive) | 7.49 | – | – | –
2 | C[C@H]1CNCCCN1S(=O)(=O)c1cccc2cncc(F)c12 | > 30 µM (inactive) | > 30 µM (inactive) | > 30 µM (inactive) | > 30 µM (inactive) | > 30 µM (inactive) | > 30 µM (inactive) | – | > 30 µM (inactive) | – | –
3 | CCNC(=O)C#Cc1ccc2c(c1)NC(=O)/C2=C(\Nc1ccc(CN(C)C)cc1)c1ccccc1 | > 30 µM (inactive) | > 30 µM (inactive) | > 30 µM (inactive) | 0.115 µM (active) | > 30 µM (inactive) | 3.48 µM (active) | – | > 30 µM (inactive) | – | –
4 | C=CC(=O)N1CCC[C@H](n2c(=O)n(-c3ccc(Oc4ccccc4)cc3)c3c(N)ncnc32)C1 | > 30 µM (inactive) | > 30 µM (inactive) | – | – | > 30 µM (inactive) | > 30 µM (inactive) | – | > 30 µM (inactive) | 7.60 | 8.30
5 | Cc1nc2cc(-c3nn(C(C)C)c4ncnc(N)c34)ccc2o1 | > 30 µM (inactive) | > 30 µM (inactive) | 2.1 µM (active) | > 30 µM (inactive) | 1.05 µM (active) | > 30 µM (inactive) | – | > 30 µM (inactive) | – | –
6 | COCc1c(-c2ccc(NC(=O)Nc3cc(C(F)(F)F)ccc3F)c(F)c2)c2c(N)ncnn2c1CN1CCOCC1 | > 30 µM (inactive) | > 30 µM (inactive) | > 30 µM (inactive) | > 30 µM (inactive) | > 30 µM (inactive) | > 30 µM (inactive) | – | > 30 µM (inactive) | – | –
7 | Cc1nc(NC(=O)N2CCC[C@H]2C(N)=O)sc1-c1ccnc(C(C)(C)C(F)(F)F)c1 [ALPELISIB] | > 30 µM (inactive) | 4.97 µM (active) | > 30 µM (inactive) | > 30 µM (inactive) | > 30 µM (inactive) | > 30 µM (inactive) | – | > 30 µM (inactive) | – | –
8 | C=CC(=O)Nc1cc2c(Nc3ccc(F)c(Cl)c3)ncnc2cc1C#CC(C)(C)N1CCN(C)CC1 [AV-412 FREE BASE] | > 30 µM (inactive) | > 30 µM (inactive) | > 30 µM (inactive) | > 30 µM (inactive) | 7.96 µM (active) | > 30 µM (inactive) | – | > 30 µM (inactive) | – | –
9 | COc1cc([C@@H]2c3cc4c(cc3[C@H](O)[C@H]3COC(=O)[C@@H]23)OCO4)cc(OC)c1OC [AXL-1717] | > 30 µM (inactive) | > 30 µM (inactive) | > 30 µM (inactive) | > 30 µM (inactive) | > 30 µM (inactive) | > 30 µM (inactive) | – | > 30 µM (inactive) | – | –
10 | NC(=O)Nc1cc(-c2cccc(F)c2)sc1C(=O)N[C@H]1CCCNC1 [AZD-7762] | > 30 µM (inactive) | 0.202 µM (active) | 1.37 µM (active) | 1.29 µM (active) | > 30 µM (inactive) | > 30 µM (inactive) | – | > 30 µM (inactive) | – | –
11 | Cn1cnc2c(F)c(Nc3ccc(Br)cc3F)c(C(=O)NOCCO)cc21 [BINIMETINIB] | > 30 µM (inactive) | > 30 µM (inactive) | > 30 µM (inactive) | > 30 µM (inactive) | > 30 µM (inactive) | > 30 µM (inactive) | – | > 30 µM (inactive) | – | –
12 | Cc1cc(Nc2ncc(Cl)c(Nc3ccccc3S(=O)(=O)C(C)C)n2)c(OC(C)C)cc1C1CCNCC1 [CERITINIB] | > 30 µM (inactive) | > 30 µM (inactive) | > 30 µM (inactive) | > 30 µM (inactive) | > 30 µM (inactive) | > 30 µM (inactive) | – | > 30 µM (inactive) | – | –
13 | COc1c(OCCCN2CCOCC2)ccc2c1N=C(NC(=O)c1cnc(N)nc1)N1CCN=C21 [COPANLISIB] | > 30 µM (inactive) | > 30 µM (inactive) | > 30 µM (inactive) | > 30 µM (inactive) | > 30 µM (inactive) | > 30 µM (inactive) | – | > 30 µM (inactive) | – | –
14 | COCC(=O)NC/C=C/c1ccc2ncnc(Nc3ccc(Oc4ccc(C)nc4)c(C)c3)c2c1 [CP-724714] | > 30 µM (inactive) | > 30 µM (inactive) | > 30 µM (inactive) | > 30 µM (inactive) | > 30 µM (inactive) | 28.6 µM (active) | – | > 30 µM (inactive) | – | –
15 | CCS(=O)(=O)N1CCN(c2ccc(Nc3ncc(C(N)=O)c(NC4CC4)n3)cc2)CC1 [Cerdulatinib Hydrochloride] | > 30 µM (inactive) | 0.552 µM (active) | > 30 µM (inactive) | > 30 µM (inactive) | > 30 µM (inactive) | > 30 µM (inactive) | – | > 30 µM (inactive) | – | –

Results, then the molecule that gave them:

Row | Kd [1] | Kd [2] | Kd [3] | Kd [4] | Kd [5] | Kd [6] | pKd [7] | Kd [7] | pKd [3] | pKd [4] | SMILES
16 | > 30 µM (inactive) | > 30 µM (inactive) | 1.94 µM (active) | > 30 µM (inactive) | > 30 µM (inactive) | 6.5 µM (active) | – | > 30 µM (inactive) | – | – | Nc1ncnc2c1c(-c1cccc(OCc3ccccc3)c1)cn2[C@H]1C[C@@H](CN2CCC2)C1 [AEW-541]
17 | > 30 µM (inactive) | > 30 µM (inactive) | > 30 µM (inactive) | > 30 µM (inactive) | > 30 µM (inactive) | > 30 µM (inactive) | – | > 30 µM (inactive) | – | – | Cc1csc(-c2nnc(Nc3ccc(Oc4ncccc4-c4ccnc(N)n4)cc3)c3ccccc23)c1 [AMG-900]
18 | > 30 µM (inactive) | > 30 µM (inactive) | > 30 µM (inactive) | > 30 µM (inactive) | > 30 µM (inactive) | > 30 µM (inactive) | – | > 30 µM (inactive) | – | – | CCn1c(C(=O)N(C2CC2)C2CC2)cc2c3c(ncn3C)c(Nc3cc(C)n(C)n3)nc21 [BMS-911543]
19 | > 30 µM (inactive) | 0.482 µM (active) | > 30 µM (inactive) | > 30 µM (inactive) | 1.28 µM (active) | 2.87 µM (active) | – | > 30 µM (inactive) | – | – | C#Cc1cccc(Nc2ncnc3cc(OC)c(OCCCCCCC(=O)NO)cc23)c1 [CUDC-101]
